Measured values published in paper PMC6151569 (Molecules : A Journal of Synthetic Chemistry and Natural …, 2017).
Like-named read-outs stand apart in the source and are kept apart here.

What was measured:
p38α MAP kinase [1] = target: T1, p38α MAP kinase (Homo sapiens, UniProt Q16539); assay: fluorescence polarization (FP)-based binding assay; conditions: for increase in binding affinity toward p38α MAP kinase relative to the 2-alkylsulfanylimidazole counterpart: 1 vs ML3403, 2 vs LN950; for Ki: n = 3
T1 sequence (Q16539 whole entry): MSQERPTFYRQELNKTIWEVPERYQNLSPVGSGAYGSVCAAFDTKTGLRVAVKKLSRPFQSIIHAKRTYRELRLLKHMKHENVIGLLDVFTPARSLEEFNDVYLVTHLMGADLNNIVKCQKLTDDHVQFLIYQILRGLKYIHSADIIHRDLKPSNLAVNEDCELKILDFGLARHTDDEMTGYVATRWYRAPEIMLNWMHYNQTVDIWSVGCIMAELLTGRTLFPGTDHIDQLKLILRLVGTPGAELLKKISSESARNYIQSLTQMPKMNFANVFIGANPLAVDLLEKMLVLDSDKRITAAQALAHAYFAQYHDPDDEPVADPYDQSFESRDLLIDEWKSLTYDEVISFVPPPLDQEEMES
Description: (§1) 2-Alkylsulfanyl imidazoles 1 and 2 were evaluated in an enzyme-linked immunosorbent assay (ELISA) as well as in a fluorescence polarization (FP)-based assay for their ability to inhibit and bind to the p38α MAP kinase. Moreover, the ability of the novel compounds to inhibit the LPS-stimulated TNF-α release in HWB was tested. In this ex vivo assay, the efficacy of the inhibitors is determined more specifically with regard to pharmacokinetic characteristics such as cellular permeability and plasma protein binding.

[2] = tested on: CYP isoforms 1A2, 2C9, 2C19, 2D6 and 3A4; assay: CYP inhibition screening, statements on the whole panel; format: in vitro ADME, human
Description: (§2) CYP inhibition (fluorimetric detection) assay was performed by Eurofins Panlabs Inc. (St. Charles, MO, USA) with human recombinant CYP enzyme and the appropriate CYP substrate.

[3] = tested on: CYP1A2, CYP2C9, CYP2C19, CYP2D6 and CYP3A4; assay: as above; format: in vitro ADME, human; conditions: human
Description: as §2

[4] = HLM stability test with LC-MS metabolite screening; format: in vitro ADME, human; conditions: for Degradation: compound remaining, AVERAGE: HLM; for biotransformation / degradation: after 4 h of incubation with HLM; for compound present / remaining unmetabolized: after incubation time of 4 h with HLM
Description: Pooled human liver microsomes (adult male & female) were purchased from Merck (Schnelldorf, Germany). These microsomes were characterized in protein and CYP content. All incubations (final total volume 1050 µL) were made in the presence of an NADPH-regenerating system, consisting of 5 mM Glucose-6-phosphate, 5 U/mL Glucose-6-phosphate dehydrogenase and 1 mM NADP^+. The substrate (100 μM), the NADPH regenerating system and 4 mM MgCl2 × 6 H2O in 0.1 M Tris buffer (pH 7.4 at 37 °C) were preincubated for 5 min in an incubator at 37 °C and 750 rpm. The incubation mix was split into 50 μL aliquots and the reaction was started by addition of the HLM. Thereby the microsomal protein content was standardized to 1 mg/mL. To follow the course of metabolism, the reaction tubes were quenched at selected time points (0, 10, 20, 30, 60, 120, 180 and 240 min) by adding 100 μL internal standard at a concentration of 22.5 µM in MeCN. The samples were vortexed for 30 s and centrifuged (19,800 relative centrifugal force/4 °C/10 min). The supernatant was directly used for LC-MS analysis (for detailed LC-MS conditions, see supplementary materials). […] In all incubations, a limit of 1% organic solvent was not exceeded. […]
Screening of Metabolites by LC-MS Analysis
Metabolite formation was analyzed with an Alliance 2695 Separations Module (Waters GmbH, Eschborn). Sam ples maintained at 4°C, the column tem perature was set to 40°C and inj ection volume was 10 μL. The chromatographic separation for analytes 1 and ML3404 was performed on a Phenomenex Synergi Max-RP column (150 x 4.6 mm; 5 μm); LN950 and 2 on a Phenomenex Synergi Polar-RP column (150 x 4.6 mm; 5 μm) with a precolumn of the same material, respectively. An isocratic gradient of 8.5 min with 30% solvent A (90% H2O, 10% ACN, 0.1% formic acid) and 70% solvent B (ACN, 0.1% formic acid) at a flow rate of 400 μL/min was used for LN950. 1 and ML3404 were chromatographically separated by a binary gradient of 11.25 min with the equal solvents as mentioned before at a flow rate of 400 μL/min. The initial composition of 10% B was held for 20 sec, followed by a linear gradient up to 85% B in 5.8 min, holding for 30 sec, immediately changing to 10% B and reequilibrating at the end. The detection was performed on a Micromass Quattro micro triple quadrupole mass spectrometer (Waters GmbH, Eschborn) using the electrospray-ionization in the positive-mode. Correspondent to the analyte the spray voltage was set to 3.0-4.0 kV. The heated capillary o perated at 250°C and the desolvation gas flow worked at 500 L/h.

[5] = tested on: LPS-stimulated TNF-α release from human whole blood; assay: HWB assay, inhibition of LPS-stimulated TNF-α release; format: cell-based; conditions: n = 2
Description: as §1

CYP2C9 = target: T2, CYP2C9 (Homo sapiens, UniProt P11712); assay: CYP inhibition (fluorimetric detection) assay; format: in vitro ADME; conditions: recombinant human CYP2C9, read-out: (%) inhibition of CYP 2C9
T2 construct: purchased Eurofins Panlabs Inc. (contract assay)
T2 sequence (P11712 whole entry): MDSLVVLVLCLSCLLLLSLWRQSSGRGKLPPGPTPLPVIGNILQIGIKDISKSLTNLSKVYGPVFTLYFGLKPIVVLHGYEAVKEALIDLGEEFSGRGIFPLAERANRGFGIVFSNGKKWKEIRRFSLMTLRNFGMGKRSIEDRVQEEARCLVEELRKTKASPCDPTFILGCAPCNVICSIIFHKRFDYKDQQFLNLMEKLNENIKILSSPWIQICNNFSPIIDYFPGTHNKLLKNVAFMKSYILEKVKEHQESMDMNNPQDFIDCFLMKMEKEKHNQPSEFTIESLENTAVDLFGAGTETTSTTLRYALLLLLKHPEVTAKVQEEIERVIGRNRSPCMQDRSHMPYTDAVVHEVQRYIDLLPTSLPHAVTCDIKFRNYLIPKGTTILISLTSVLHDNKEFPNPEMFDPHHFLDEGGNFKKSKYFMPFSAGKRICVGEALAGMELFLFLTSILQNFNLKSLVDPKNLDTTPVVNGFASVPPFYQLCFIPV
Description: as §2

CYP2D6 = target: T3, CYP2D6 (Homo sapiens, UniProt P10635); assay: CYP inhibition (fluorimetric detection) assay; format: in vitro ADME; conditions: recombinant human CYP2D6, read-out: (%) inhibition of CYP 2D6
T3 construct: purchased Eurofins Panlabs Inc. (contract assay)
T3 sequence (P10635 whole entry): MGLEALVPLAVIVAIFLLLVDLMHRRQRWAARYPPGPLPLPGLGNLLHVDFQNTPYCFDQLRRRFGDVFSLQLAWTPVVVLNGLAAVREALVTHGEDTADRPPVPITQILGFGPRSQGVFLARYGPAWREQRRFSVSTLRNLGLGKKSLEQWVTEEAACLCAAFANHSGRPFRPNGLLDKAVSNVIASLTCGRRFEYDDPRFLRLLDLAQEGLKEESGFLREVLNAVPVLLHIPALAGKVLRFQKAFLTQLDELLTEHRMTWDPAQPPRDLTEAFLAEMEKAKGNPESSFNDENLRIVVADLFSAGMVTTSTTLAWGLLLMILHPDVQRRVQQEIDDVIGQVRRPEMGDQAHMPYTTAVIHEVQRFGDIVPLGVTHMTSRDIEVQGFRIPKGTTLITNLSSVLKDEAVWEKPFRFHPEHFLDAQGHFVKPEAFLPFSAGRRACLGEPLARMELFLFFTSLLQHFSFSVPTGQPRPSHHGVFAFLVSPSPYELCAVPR
Description: as §2

CYP1A2 = target: T4, CYP1A2 (Homo sapiens, UniProt P05177); assay: CYP inhibition (fluorimetric detection) assay; format: in vitro ADME; conditions: recombinant human CYP1A2, read-out: (%) inhibition of CYP 1A2
T4 construct: purchased Eurofins Panlabs Inc. (contract assay)
T4 sequence (P05177 1-516): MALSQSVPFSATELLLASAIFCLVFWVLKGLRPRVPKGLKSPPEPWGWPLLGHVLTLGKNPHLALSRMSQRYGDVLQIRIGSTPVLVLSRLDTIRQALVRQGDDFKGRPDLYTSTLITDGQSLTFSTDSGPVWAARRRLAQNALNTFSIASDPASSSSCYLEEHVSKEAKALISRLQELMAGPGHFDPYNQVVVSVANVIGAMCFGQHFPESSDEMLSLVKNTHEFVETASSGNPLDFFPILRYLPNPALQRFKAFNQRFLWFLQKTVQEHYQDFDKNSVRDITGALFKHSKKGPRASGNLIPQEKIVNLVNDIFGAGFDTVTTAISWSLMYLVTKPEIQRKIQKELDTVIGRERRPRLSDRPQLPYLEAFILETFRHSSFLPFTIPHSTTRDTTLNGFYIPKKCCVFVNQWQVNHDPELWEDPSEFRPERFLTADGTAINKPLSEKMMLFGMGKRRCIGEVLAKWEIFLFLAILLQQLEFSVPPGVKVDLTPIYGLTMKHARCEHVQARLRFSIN
Description: as §2

CYP3A4 = target: T5, CYP3A4 (Homo sapiens, UniProt P08684); assay: CYP inhibition (fluorimetric detection) assay; format: in vitro ADME; conditions: recombinant human CYP3A4, read-out: (%) inhibition of CYP 3A4
T5 construct: purchased Eurofins Panlabs Inc. (contract assay)
T5 sequence (P08684 whole entry): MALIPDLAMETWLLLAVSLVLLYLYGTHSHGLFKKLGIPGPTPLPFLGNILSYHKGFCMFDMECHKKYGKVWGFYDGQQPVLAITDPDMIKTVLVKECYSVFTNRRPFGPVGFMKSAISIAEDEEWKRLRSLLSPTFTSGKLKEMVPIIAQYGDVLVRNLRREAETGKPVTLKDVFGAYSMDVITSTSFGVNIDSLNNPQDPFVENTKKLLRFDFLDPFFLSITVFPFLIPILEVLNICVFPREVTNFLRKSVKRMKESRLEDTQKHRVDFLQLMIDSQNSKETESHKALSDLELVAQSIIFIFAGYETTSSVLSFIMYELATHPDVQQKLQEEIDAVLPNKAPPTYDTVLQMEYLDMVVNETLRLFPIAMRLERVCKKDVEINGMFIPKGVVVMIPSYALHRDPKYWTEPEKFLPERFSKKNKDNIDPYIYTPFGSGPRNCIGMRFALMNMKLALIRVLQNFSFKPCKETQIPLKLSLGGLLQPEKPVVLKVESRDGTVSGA
Description: as §2

CYP2C19 = target: T6, CYP2C19 (Homo sapiens, UniProt P33261); assay: CYP inhibition (fluorimetric detection) assay; format: in vitro ADME; conditions: recombinant human CYP2C19, read-out: (%) inhibition of CYP 2C19
T6 construct: purchased Eurofins Panlabs Inc. (contract assay)
T6 sequence (P33261 whole entry): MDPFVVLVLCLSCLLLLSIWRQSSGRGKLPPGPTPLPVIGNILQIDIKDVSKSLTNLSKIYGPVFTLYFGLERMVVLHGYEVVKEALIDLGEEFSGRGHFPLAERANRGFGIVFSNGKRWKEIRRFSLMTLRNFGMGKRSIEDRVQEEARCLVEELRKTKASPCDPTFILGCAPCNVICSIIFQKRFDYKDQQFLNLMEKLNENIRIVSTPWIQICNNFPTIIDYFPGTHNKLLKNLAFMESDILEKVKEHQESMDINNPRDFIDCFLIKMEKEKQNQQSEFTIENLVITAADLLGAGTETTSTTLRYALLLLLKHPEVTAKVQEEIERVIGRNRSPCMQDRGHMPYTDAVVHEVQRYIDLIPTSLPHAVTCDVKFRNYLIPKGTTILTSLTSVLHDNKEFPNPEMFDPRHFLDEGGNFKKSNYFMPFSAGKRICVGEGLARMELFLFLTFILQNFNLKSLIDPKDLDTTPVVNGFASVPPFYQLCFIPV
Description: as §2

p38α MAP kinase [6] = target: T1, p38α MAP kinase; assay: ELISA assay, inhibition of p38α MAP kinase; format: biochemical; conditions: for IC50: n = 3
Description: as §1

p38α MAP kinase [7] = target: T1, p38α MAP kinase; conditions: metabolite of ML3403; cited from earlier work
[8] = tested on: LPS-stimulated TNF-α release from human whole blood; conditions: cited from earlier work
p38α MAP kinase [9] = target: T1, p38α MAP kinase; conditions: read-out: FP Assay p38α Ki; cited from earlier work
[10] = male and female human liver microsomes; cited from earlier work
[11] = mouse liver microsomes; cited from earlier work
[12] = rat liver microsomes; cited from earlier work

Compound | increase in binding affinity toward p38α MAP kinase relative to the 2-alkylsulfanylimidazole counterpart (p38α MAP kinase [1]) | Ki (p38α MAP kinase [1]) | inhibition at 10 µM [3] | Degradation: compound remaining, AVERAGE ([4]; 0 min) | Degradation: compound remaining, AVERAGE ([4]; 10 min) | Degradation: compound remaining, AVERAGE ([4]; 20 min) | Degradation: compound remaining, AVERAGE ([4]; 30 min) | Degradation: compound remaining, AVERAGE ([4]; 60 min) | Degradation: compound remaining, AVERAGE ([4]; 120 min) | Degradation: compound remaining, AVERAGE ([4]; 180 min) | Degradation: compound remaining, AVERAGE ([4]; 240 min) | biotransformation / degradation [4] | IC50 [5] | inhibition at 10 µM (CYP2C9) | inhibition at 10 µM (CYP2D6) | inhibition at 10 µM (CYP1A2) | inhibition at 10 µM (CYP3A4) | inhibition at 10 µM (CYP2C19) | IC50 (p38α MAP kinase [6]) | compound present / remaining unmetabolized [4] | other results
CC(Nc1cc(-c2nc([S+](C)[O-])[nH]c2-c2ccc(F)cc2)ccn1)c1ccccc1 (stereo not shown) [ML3603] |  |  |  |  |  |  |  |  |  |  |  |  |  |  |  |  |  |  |  |  | activity on p38α MAP kinase (p38α MAP kinase [7]): active
CCc1nc(-c2ccc(F)cc2)c(-c2ccnc(NC(C)c3ccccc3)c2)[nH]1 (stereo not shown) [compound 1, 4-(2-Ethyl-4-(4-fluorophenyl)-1H-imidazol-5-yl)-N-(1-phenylethyl)pyridin-2-amine] | 4 fold | 11 ± 3 nM | > 70% | 100.00% | 92.72% | 89.75% | 87.96% | 86.27% | 83.65% | 80.90% | 79.75% | 20% | 2539 ± 20 nM | 85.1% | 90.2% | 85.6% | 97.6% | 71% | 25 ± 2 nM | up to 80% | 
CSc1nc(-c2ccnc(NC(C)c3ccccc3)c2)c(-c2ccc(F)cc2)[nH]1 (stereo not shown) [ML3403, 4-(5-(4-fluorophenyl)-2-(methylthio)-1H-imidazol-4-yl)-N-(1-phenylethyl)pyridin-2-amine, reference compound] |  |  |  | 100.00% | 80.59% | 68.97% | 57.93% | 42.80% | 31.72% | 24.06% | 16.25% |  | 2980 ± 874 nM |  |  |  |  |  |  | less than 20% | half-life at 100 µM ([4]; both sexes, human, pooled human liver microsomes, pH 7.4, pooled HLM, this study, read-out: in vitro half-life (converted)): 51.6 min; in vitro half-life [10]: 32.7 min; IC50 ([8]; printed in Figure 1, known inhibitors, read-out: IC50 (TNF-α)): 2700 nM; in vitro half-life [11]: 5.9 min; in vitro half-life [12]: 11.4 min

Further lines, with some results ahead:

increase in binding affinity toward p38α MAP kinase relative to the 2-alkylsulfanylimidazole counterpart (p38α MAP kinase [1]) | Ki (p38α MAP kinase [1]) | inhibition at 10 µM [3] | Degradation: compound remaining, AVERAGE ([4]; 0 min) | Degradation: compound remaining, AVERAGE ([4]; 10 min) | Degradation: compound remaining, AVERAGE ([4]; 20 min) | Degradation: compound remaining, AVERAGE ([4]; 30 min) | Degradation: compound remaining, AVERAGE ([4]; 60 min) | Degradation: compound remaining, AVERAGE ([4]; 120 min) | Degradation: compound remaining, AVERAGE ([4]; 180 min) | Degradation: compound remaining, AVERAGE ([4]; 240 min) | biotransformation / degradation [4] | IC50 [5] | inhibition at 10 µM (CYP2C9) | inhibition at 10 µM (CYP2D6) | inhibition at 10 µM (CYP1A2) | inhibition at 10 µM (CYP3A4) | inhibition at 10 µM (CYP2C19) | IC50 (p38α MAP kinase [6]) | compound present / remaining unmetabolized [4] | Compound | other results
4 fold | 1 ± 0.2 nM | > 60% | 100.00% | 97.15% | 93.57% | 91.84% | 91.99% | 91.57% | 90.42% | 89.73% | 10% | 32 ± 1 nM | 61.9% | 78.8% | 69.4% | 92.1% | 83.6% | 11 ± 5 nM |  | CC(C)C(C)Nc1cc(-c2[nH]c(CCCO)nc2-c2ccc(F)cc2)ccn1 (stereo not shown) [compound 2, 3-(4-(4-Fluorophenyl)-5-(2-((3-methylbutan-2-yl)amino)pyridin-4-yl)-1H-imidazol-2-yl)propan-1-ol] | CYP test concentration of 10 µM relative to the IC50 value in the kinase activity assay [2]: ~1000 fold; more active than reference compound ML3403 (p38α MAP kinase [6]; p38α MAP kinase): 3.6 fold
 |  |  | 100.00% | 86.86% | 77.42% | 61.96% | 51.99% | 37.23% | 32.10% | 28.49% | > 70% |  | 91.5% | 41.5% | 28% | 61% | 63% |  |  | CC(C)C(C)Nc1cc(-c2nc(SCCO)[nH]c2-c2ccc(F)cc2)ccn1 (stereo not shown) [LN950, 2-((5-(4-fluorophenyl)-4-(2-((3-methylbutan-2-yl)amino)pyridin-4-yl)-1H-imidazol-2-yl)thio)ethan-1-ol, reference compound] | IC50 ([8]; LPS-stimulated human whole blood, read-out: HWB Assay TNF-α IC50): 37 ± 4 nM; Ki (p38α MAP kinase [9]): 4 ± 1 nM
